Test results published in patent US6849612B2, “Oligonucleotide modulation of cell adhesion” (ISIS Pharmaceuticals, Inc., priority 1993, dated 2005).
Strand notation (5' to 3'): a small letter for the sugar, then the base; units joined by * are phosphorothioate-linked, units joined directly phosphodiester-linked; [ ] holds rarer units or linkages, { } end groups; capitals alone tell only the bases. d = 2'-deoxy (DNA)

Tests used:
[1] = tested on: VCAM-1; test: ELISA of VCAM-1 expression in TNF-stimulated HUVEC; assay type: cell-based, human; settings: for VCAM-1 EXPRESSION 30 nM oligo (VCAM-1 expression is given as % of control) / VCAM-1 EXPRESSION 50 nM oligo (VCAM-1 expression is given as % of control): TNF-α 16 hours; for IC50: TNF-α, read-out: IC50 for inhibition of VCAM-1 expression (asterisk)
Method: (§1) Primary human umbilical vein endothelial (HUVEC) cells, passage 2 to 5, were plated in 96-well plates and allowed to reach confluence. Cells were washed three times with Opti-MEM (GIBCO, Grand Island N.Y.). Cells were treated with increasing concentrations of oligonucleotide diluted in Opti-MEM containing 10 μg/ml DOTMA solution (Bethesda Research Labs, Bethesda, Md.) for 4 hours at 370C. The medium was removed and replaced with EGM-UV (Clonetics, San Diego Calif.) plus oligonucleotide. Tumor necrosis factor α was added to the medium (2.5 ng/ml) and the cells were incubated an additional 4 hours at 37° C.
(§2) ELAM-1 expression was determined by ELISA. Cells were gently washed three times with Dulbecco's phosphate-buffered saline (D-PBS) prewarmed to 37° C. Cells were fixed with 95% ethanol at 4° C. for 20 minutes, washed three times with D-PBS and blocked with 2% BSA in D-PBS. Cells were incubated with ELAM-1 monoclonal antibody BBA-1 (R&D Systems, Minneapolis Minn.) diluted to 0.5 μg/ml in D-PBS containing 2% BSA for 1 hour at 37° C. Cells were washed three times with D-PBS and the bound ELAM-1 antibody detected with biotinylated goat anti-mouse secondary antibody followed by β-galactosidase-conjugated streptavidin as described in Example 1.
Inhibition of VCAM-1 expression by fifteen antisense phosphorothioate oligonucleotides was determined using the ELISA assay approximately as described in Example 12, except that cells were stimulated with TNF-àfor 16 hours and VCAM-1 expression was detected by a VCAM-1 specific monoclonal antibody (R & D Systems, Minneapolis, Minn.) used at 0.5 μg/ml.

[2] = tested on: ELAM-1; test: ELISA of ELAM-1 expression in TNF-stimulated HUVEC; assay type: cell-based, human; settings: for ELAM-1 expression (% of control) / IC50: HUVEC; for ELAM-1 expression (% of control): TNF-α […] 4 hours; for IC50: TNF-α, read-out: IC50 for inhibition of ELAM-1 expression (asterisk); for inhibition of ELAM-1 expression: TNF-treated HUVEC
Method: as §1, §2
ELISA screening of additional antisense oligonucleotides for activity against ELAM-1 gene expression Inhibition of ELAM-1 expression by eighteen antisense phosphorothioate oligonucleotides was determined using the ELISA assay as described in Example 12.

| Substance | VCAM-1 EXPRESSION 30 nM oligo (VCAM-1 expression is given as % of control) [1] | VCAM-1 EXPRESSION 50 nM oligo (VCAM-1 expression is given as % of control) [1] | ELAM-1 expression (% of control) ([2]; 30 nM oligo) | ELAM-1 expression (% of control) ([2]; 50 nM oligo) | IC50 [2] | IC50 [1] | inhibition of ELAM-1 expression [2] |
| --- | --- | --- | --- | --- | --- | --- | --- |
| ISIS 3791: phosphorothioate, human VCAM-1 5′UTR 38-58, SEQ ID NO 61, CCTGGGAGGGTATTCAGCT (antisense dG*dC*dC*dT*dG*dG*dG*dA*dG*dG*dG*dT*dA*dT*dT*dC*dA*dG*dC*dT) | 92.6 % of control | 58.0 % of control | – | – | – | – | – |
| ISIS 2694: P=S, human ELAM-1 3′-UTR 2933-2953, SEQ ID NO 39, GACAATATACAAACCTTCCAT (antisense dG*dA*dC*dA*dA*dT*dA*dT*dA*dC*dA*dA*dA*dC*dC*dT*dT*dC*dC*dA*dT) | – | – | 72.0 % of control | 64.6 % of control | – | – | – |
| ISIS 4756: phosphorothioate, human ELAM-1 I/E 177-196, SEQ ID NO 54, CCAAAGTGAGAGCTGAGAGA (antisense dC*dC*dA*dA*dA*dG*dT*dG*dA*dG*dA*dG*dC*dT*dG*dA*dG*dA*dG*dA) | – | – | 53.9 % of control | 35.7 % of control | ≤ 50 nM | – | – |
| ISIS 5847: phosphorothioate, human VCAM-1 3′-UTR 2957-2976, SEQ ID NO 72, AACATCTCCGTACCATGCCA (DNA, all phosphorothioate, methylation of C not given here) | 51.8 % of control | 24.6 % of control | – | – | – | ≤ 50 nM | – |
| ISIS 2686: P=S, human ELAM-1 AUG 148-168, SEQ ID NO 36, TGAAGCAATCATGACTTCAAG (antisense dT*dG*dA*dA*dG*dC*dA*dA*dT*dC*dA*dT*dG*dA*dC*dT*dT*dC*dA*dA*dG) | – | – | 51.1 % of control | 46.9 % of control | ≤ 50 nM | – | – |
| ISIS 4720: phosphorothioate, human ELAM-1 3′-UTR 3093-3112, SEQ ID NO 59, GGAATGCAAAGCACATCCAT (antisense dG*dG*dA*dA*dT*dG*dC*dA*dA*dA*dG*dC*dA*dC*dA*dT*dC*dC*dA*dT) | – | – | 63.5 % of control | 70.6 % of control | – | – | – |
| ISIS 5884: phosphorothioate, human VCAM-1 5′-UTR 1-19, SEQ ID NO 60, CGATGCAGATACCGCGGAGT (antisense dC*dG*dA*dT*dG*dC*dA*dG*dA*dT*dA*dC*dC*dG*dC*dG*dG*dA*dG*dT) | 79.2 % of control | 37.2 % of control | – | – | – | ≤ 50 nM | – |
| ISIS 2679: P=S, human ELAM-1 5′-UTR 40-59, SEQ ID NO 33, CTGCTGCCTCTGTCTCAGGT (antisense dC*dT*dG*dC*dT*dG*dC*dC*dT*dC*dT*dG*dT*dC*dT*dC*dA*dG*dG*dT) | – | – | 6.4 % of control | 6.0 % of control | ≤ 50 nM | – | most potent |
| ISIS 5863: phosphorothioate, human VCAM-1 CODING 745-764, SEQ ID NO 64, CAGCCTGCCTTACTGTGGGC (DNA, all phosphorothioate, methylation of C not given here) | 95.8 % of control | 66.7 % of control | – | – | – | – | – |
| ISIS 4759: phosphorothioate, human ELAM-1 5′-UTR 64-83, SEQ ID NO 53, ACAGGATCTCTCAGGTGGGT (antisense dA*dC*dA*dG*dG*dA*dT*dC*dT*dC*dT*dC*dA*dG*dG*dT*dG*dG*dG*dT) | – | – | 30.0 % of control | 20.2 % of control | ≤ 50 nM | – | – |
| ISIS 2683: P=S, human ELAM-1 AUG 143-163, SEQ ID NO 35, AATCATGACTTCAAGAGTTCT (antisense dA*dA*dT*dC*dA*dT*dG*dA*dC*dT*dT*dC*dA*dA*dG*dA*dG*dT*dT*dC*dT) | – | – | 47.9 % of control | 48.5 % of control | ≤ 50 nM | – | – |
| ISIS 2678: P=S, human ELAM-1 3′-UTR 3557-3576, SEQ ID NO 32, ACCTCTGCTGTTCTGATCCT (antisense dA*dC*dC*dT*dC*dT*dG*dC*dT*dG*dT*dT*dC*dT*dG*dA*dT*dC*dC*dT) | – | – | 24.9 % of control | 15.3 % of control | ≤ 50 nM | – | – |
| ISIS 2687: P=S, human ELAM-1 5′-UTR 17-36, SEQ ID NO 37, TATAGGAGTTTTGATGTGAA (antisense dT*dA*dT*dA*dG*dG*dA*dG*dT*dT*dT*dT*dG*dA*dT*dG*dT*dG*dA*dA) | – | – | 91.1 % of control | 73.8 % of control | – | – | did not show significant activity |
| ISIS 2674: P=S, human ELAM-1 3′-UTR 2617-2637, SEQ ID NO 31, CACAATCCTTAAGAACTCTTT (antisense dC*dA*dC*dA*dA*dT*dC*dC*dT*dT*dA*dA*dG*dA*dA*dC*dT*dC*dT*dT*dT) | – | – | 33.5 % of control | 28.1 % of control | ≤ 50 nM | – | – |
| ISIS 4719: phosphorothioate, human ELAM-1 3′-UTR 2993-3012, SEQ ID NO 58, ACGTTTGGCCTCATGGAAGT (antisense dA*dC*dG*dT*dT*dT*dG*dG*dC*dC*dT*dC*dA*dT*dG*dG*dA*dA*dG*dT) | – | – | 36.8 % of control | 34.7 % of control | ≤ 50 nM | – | – |
| ISIS 2673: P=S, human ELAM-1 3′-UTR 2656-2676, SEQ ID NO 30, GTATGGAAGATTATAATATAT (antisense dG*dT*dA*dT*dG*dG*dA*dA*dG*dA*dT*dT*dA*dT*dA*dA*dT*dA*dT*dA*dT) | – | – | 58.9 % of control | 53.8 % of control | – | – | – |
| ISIS 4764: phosphorothioate, human ELAM-1 5′-UTR 1-19, SEQ ID NO 52, GAAGTCAGCCAAGAACAGCT (antisense dG*dA*dA*dG*dT*dC*dA*dG*dC*dC*dA*dA*dG*dA*dA*dC*dA*dG*dC*dT) | – | – | 70.2 % of control | 50.2 % of control | ≤ 50 nM | – | – |
| ISIS 4732: phosphorothioate, human ELAM-1 Coding 1936-1955, SEQ ID NO 55, CTGATTCAAGGCTTTGGCAG (antisense dC*dT*dG*dA*dT*dT*dC*dA*dA*dG*dG*dC*dT*dT*dT*dG*dG*dC*dA*dG) | – | – | 68.5 % of control | 55.3 % of control | – | – | – |
| ISIS 4730: phosphorothioate, human ELAM-1 I/E 3′UTR 2006-2025, SEQ ID NO 56, TCCCCAGATGCACCTGTTT (antisense dT*dT*dC*dC*dC*dC*dA*dG*dA*dT*dG*dC*dA*dC*dC*dT*dG*dT*dT*dT) | – | – | 14.1 % of control | 2.3 % of control | ≤ 50 nM | – | – |
| ISIS 4729: phosphorothioate, human ELAM-1 3′-UTR 2063-2082, SEQ ID NO 57, GGGCCAGAGACCCGAGGAGA (antisense dG*dG*dG*dC*dC*dA*dG*dA*dG*dA*dC*dC*dC*dG*dA*dG*dG*dA*dG*dA) | – | – | 49.4 % of control | 46.3 % of control | ≤ 50 nM | – | – |
| ISIS 2670: P=S, human ELAM-1 3′-UTR 3717-3736, SEQ ID NO 29, ACCACACTGGTATTTCACAC (antisense dA*dC*dC*dA*dC*dA*dC*dT*dG*dG*dT*dA*dT*dT*dT*dC*dA*dC*dA*dC) | – | – | 72.2 % of control | 67.2 % of control | – | – | – |
